Assay results from patent publication US10300070B2, “Metabolically-activated drug conjugates to overcome resistance in cancer therapy” (The Brigham and Women's Hospital, Inc., priority 2014, dated 2019).

Experiments:
[1] = test system: explant tumor tissue from taxane-refractory breast cancer patients; test: Human refractory breast cancer explant model, glucose uptake; format: cell-based; conditions: chemotherapy in the presence of hexokinase inhibition, 72 h
Method: Anonymous human breast cancer tissues (N=7) from patients refractory to taxane-containing regimens and varying stages of disease were obtained from Mitra Biotech collected under IRB approval from HCG Bangalore Institute of Oncology with due consent. Fresh tumor tissues were collected from breast cancer patients immediately after surgical resection at HCG cancer hospital, Bangalore, India. The tumor samples were transported to the laboratory at 4° C., in appropriate transport buffer within 60 minutes post-resection, for ex-vivo studies and molecular and pathological evaluation. Tissues were cut into thin sections and cultured in 96 well plate using optimized conditions[BISWANATH REF]. Tumors were treated with a taxane, or doxorubicin at Cmax for 72 h. DMSO was used as a vehicle control. After treatment, tumor cell viability was measured. Immunohistochemistry (IHC) was performed as described in methods. Glucose uptake was evaluated 72 h post culture.
Glucose uptake assay was carried 72 hours post culture. Two micro liter of culture supernatant was added to 200 μl of Glucose reagent (Liquixx Glucose Reagent, Erbaa). All readings along with glucose standard (100 mg/dL) were run in triplicate. The plate was incubated at room temperature for 5 minutes on a plate shaker at medium speed and the absorbance was measured at 505 nm using multimode plate reader (Perkin Elmer).

MDA-MB-231 parent or DTC [2] = test: Cell viability (MTS) and trypan blue exclusion of parent or DTC treated with doxorubicin; format: cell-based; conditions: co-incubated with dox, 48 h
Method: (§1) MDA-MB-231 (ATCC), MDA-MB-468 and 4T-1 mammary carcinoma cells (ATCC) were cultured in DMEM containing 10% Fetal Bovine Serum (FBS) at 37 C and 5% CO2. DU145 and DU145-TxR were provided by A. Mizokami^63 and cultured in DMEM containing 10% FBS, resistant line included 100 nM paclitaxel in the culture media. During treatments with chemotherapeutics, cells were grown to semi-confluence and treated with indicated concentrations of chemotherapy in serum-containing medium for indicated time points. When small molecule inhibitors were included in treatments, they were added simultaneously with chemotherapy. For siRNA gene knockdown, cells were transfected with silencer-select siRNA plasmids (Ambion, Invitrogen, Grand Island, N.Y.) pan-CD44(1) (s2682) panCD44(2) (s2681), siHIF1A (s6539) using lipofectamine 2000 (Invitrogen, Carlsbad Calif.) following manufacturer protocol and cultured for 72 hours prior to treatment. Scrambled siRNA was used as a control. For chemotherapy treatment experiments: Cancer cells were plated at a density of 0.5-1×10^5 cells/ml and allowed to adhere for 24-48 hr. When cells reached ˜70% confluency they were treated with cytotoxics at indicated concentrations for 24-48 hours and utilized for subsequent assays. For experiments in which a shorter incubation was used (i.e. 15 min-4 hours) fresh media was added 24 hours prior to addition of chemotherapy suspended to stock concentration in PBS. For generation of DTC: Cells were treated for 48 hours with chemotherapy. Following washes with PBS, adherent cells were trypsinized and re-plated at a density of 1.5-2×10^5 cells/ml and cultured in serum-containing medium. After 24 hours incubation, floating cells were removed and remaining cells were washed with 1× PBS and considered as chemotherapy-tolerant cells. A population of drug naïve parent cells were always cultured alongside DTC and fresh media was added at every interval that experimental population (DTC) received fresh media.
Following drug incubation, cells were washed and suspended in phenol red-free RPMI or DMEM and subsequently treated with MTS reagent using manufacturer protocol (Promega, Madison, Wis.). Trypan blue exclusion was used to validate experiments and evaluate % of dead cells performed by bright field microscopy.

mice = test: Systemic toxicity in treated 4T-1 tumor-bearing mice (hair and weight loss, spleen, heart caspase-3); format: in vivo
Method: (§2) An in-vivo study was designed creating drug-schedules following successive doses of docetaxel at MTD or vehicle control in distinct groups. […] Finally, in effort to dissect the dosing-response of MADC vs. free drugs, a dose-titration of doxorubicin+PI103 or MADC in sequence with docetaxel was performed. […] Finally, a preliminary bio distribution study of the free doxorubicin or conjugate was performed on heterotopically-implanted 4T-1 syngeneic mammary carcninoma model. Mice were treated with 20 mg/kg equivalent of MADC or Doxorubicin or a vehicle control group (N=3 per group). […] Organ lysate was then centrifuged at 15,000 g and supernatant was filtered through a 0.2 mm filter syringe before aliquoted into quadruplicate wells of a 96-well plate. […] Autofluorescence determined from vehicle-treated control groups was subtracted from experimental groups and final fluorescence was determined as % arbitrary fluorescence units (AFU)/mg tissue as % increase from vehicle treated control values.

[3] = 20 mg/kg equivalent, 24 h, heterotopic 4T-1 model
Method: as §2

[4] = test system: 4T-1 mouse mammary carcinoma; format: in vivo, mice
Method: Tumor volumes were assessed by the following formula: (Width×Width×length)/2 and values were utilized to calculate tumor specific growth rate (SGR) by the algorhythm (ln [V2/V1]/[t2−t1)] where V=volume and t=time in days^64.
An in-vivo study was designed creating drug-schedules following successive doses of docetaxel at MTD or vehicle control in distinct groups. […] Finally, in effort to dissect the dosing-response of MADC vs. free drugs, a dose-titration of doxorubicin+PI103 or MADC in sequence with docetaxel was performed.

ROS (hydrogen peroxide) = conditions: 10-20 uM of paclitaxel; cited from earlier work
DTC = test: Total intracellular reduced glutathione (GSH) in drug tolerant cells; format: cell-based; conditions: acute (3 hours) exposure; ML-265 10 μM, catalase 2000 U/ml
Method: In vitro detection of glucose uptake was performed using 2-(N-7-Nitrobenz-2-oxa-1,3-diazol-4-yl)Amino)-2-Deoxyglucose (2-NBDG) (Invitrogen, Carlsbad Calif.), dissolved in DMSO to 50 mM. Cells were pre-treated with kinase inhibitors or vehicle for 3 hours in glucose- and phenol red-free media before addition of 50 μM 2-NBDG and subsequently read by FACS ex/em 488/535 nm. ROS was determined by pre-loading cells with CM-DCFDA (1 μM), washed 2 times with PBS and subsequently treated with H2O2 or vehicle; when kinase inhibitors were included in treatment, cells were first incubated with inhibitor for 3 hours prior to CM-DCFDA loading. Fluorescence was then determined by FACS ex/em 488/535 nm. For the following assays, cells were trypsinized and counted by Nexcelom cell counter (Lawrence, Mass.) prior to being subjected to analysis in order to achieve a quantitative value per cell: Reduced glutathione was determined using a colorimetric glutathione recycling system by DTNB following manufacturer protocol (Biovision, Milpitas Calif.). […] Protein synthesis was measured by two means 1. […] Fluorescence was detected by FACS as described below. […] GFP protein translation was determined by fluorescent microscopy. […] Individual cells were evaluated for fluorescent intensity of caspase-3 activity (red signal intensity) and green fluorescent protein intensity. […]

MDA-MB-231 parent or DTC [5] = test: Glucose uptake (2-NBDG) determined by FACS; format: cell-based; conditions: MDA-MB-231 DTC incubated with catalase for 6 hours
Method: as §1
In vitro detection of glucose uptake was performed using 2-(N-7-Nitrobenz-2-oxa-1,3-diazol-4-yl)Amino)-2-Deoxyglucose (2-NBDG) (Invitrogen, Carlsbad Calif.), dissolved in DMSO to 50 mM. Cells were pre-treated with kinase inhibitors or vehicle for 3 hours in glucose- and phenol red-free media before addition of 50 μM 2-NBDG and subsequently read by FACS ex/em 488/535 nm. ROS was determined by pre-loading cells with CM-DCFDA (1 μM), washed 2 times with PBS and subsequently treated with H2O2 or vehicle; when kinase inhibitors were included in treatment, cells were first incubated with inhibitor for 3 hours prior to CM-DCFDA loading. Fluorescence was then determined by FACS ex/em 488/535 nm. For the following assays, cells were trypsinized and counted by Nexcelom cell counter (Lawrence, Mass.) prior to being subjected to analysis in order to achieve a quantitative value per cell: Reduced glutathione was determined using a colorimetric glutathione recycling system by DTNB following manufacturer protocol (Biovision, Milpitas Calif.). ATP analysis was performed using the ATP colorimetric analysis kit (Biovision) according to manufacturer protocol. Reductive stress was detected using the Enzo nitroreductase hypoxia kit (Enzo Life Sciences, Ann Arbor Mich.) following manufacturer protocol and visualized by fluorescent microscopy; a set of non-docetaxel-treated control cells loaded with fluorescent probe were compared against docetaxel-treated cells to derive a % redox stress increase which was calculated as fluorescence intensity of nitroreductase probe per cell and expressed as increase from vehicle. Protein synthesis was measured by two means 1. L-azidohomoalanine amino acid analog of methionine containing an azide moiety was added to cultured cells (parent or DTC) for 3 hours which is incorporated into proteins during active protein synthesis. […]

With `O=C(O)c1nn(Cc2ccc(Cl)cc2Cl)c2ccccc12` [Lonidamine] the “glucose uptake of explant tumor tissue” value [1] was “diminished capacity for glucose uptake”, the “response to dox in combination with inhibitor, DTC” value (MDA-MB-231 parent or DTC [2]; DTC, PI103 5 μM, lonidamine 10 μM, KB-458 and KB-697 10 μM) was “exquisitely responsive, overtly driven to cell death by dox in combination” and the “response to dox in combination with inhibitor, parent cells” value (MDA-MB-231 parent or DTC [2]; drug naïve parent cells) was “little synergism or a reversion of synergy”.

With `COc1cccc2c1C(=O)c1c(O)c3c(c(O)c1C2=O)C[C@@](O)(C(=O)COC(=O)NCCSSCCNC(=O)Oc1cccc(-c2nc(N4CCOCC4)c4oc5ncccc5c4n2)c1)CC3OC1C[C@@H](C)[C@@H](O)[C@@H](N)C1` (stereo partly shown) [MADC] the “systemic toxicity (toxic burden)” value (mice; MADC vs. free drug combination groups) was “significant reduction of toxic burden”, the “hair and weight loss and myelosuppression indicated by splenic miniaturization” value (mice; MADC-treated cohorts vs free drug combination) was “significantly attenuated” and the “splenic miniaturization in dose-titration” value (mice; lower concentration (3 mg/kg), in sequence with docetaxel) was “negligible”. For the same molecule, the “cardiotoxicity (activated caspase-3, immunoblots of whole heart lysate)” value (mice; mouse, in vivo) was “lower indication of cardiotoxicity”, the “biodistribution (organ accumulation by fluorescence)” value [3] was “greater concentration of the conjugate in the lung compared to the free drug administration” and the “tumor growth suppression, in sequence with docetaxel” value ([4]; given after successive doses of docetaxel at MTD) was “elicited suppression of tumor growth, largely comparable to the combination of free drugs in similar sequence”. For the same molecule, the “tumor growth suppression, in sequence with vehicle” value ([4]; given after vehicle control) was “operated poorly to suppress tumor growth”, the “dose-titration, tumor growth, lower concentration” value ([4]; in sequence with docetaxel, 3 mg/kg) was “greater effect than free drug combination” and the “dose-titration, tumor growth, 5 mg/kg and 10 mg/kg” value ([4]; in sequence with docetaxel, 5 mg/kg and 10 mg/kg) was “saturating concentrations”.

In the case of `CC(=O)O[C@H]1C(=O)[C@@]2(C)[C@H]([C@H](OC(=O)c3ccccc3)[C@]3(O)C[C@H](OC(=O)[C@H](O)[C@@H](NC(=O)c4ccccc4)c4ccccc4)C(C)=C1C3(C)C)[C@]1(OC(C)=O)CO[C@@H]1C[C@@H]2O` [paclitaxel], the “increase from basal ROS levels” value (ROS (hydrogen peroxide)) is listed as 3-5 ×.

With `Cn1c2cc([S+](C)[O-])sc2c2cnn(Cc3cccc(N)c3)c(=O)c21` (stereo not shown) [ML-265] the “total levels of reduced glutathione (GSH) in DTC” value (DTC) was “diminished total levels of reduced glutathione in DTC”.

B1: catalase: an endogenous modulator of redox stress (protein, UniProt P04040 2-527, looked up)
Catalase: ADSRDPASDQMQHWKEQRAAQKADVLTTGAGNPVGDKLNVITVGPRGPLLVQDVVFTDEMAHFDRERIPERVVHAKGAGAFGYFEVTHDITKYSKAKVFEHIGKKTPIAVRFSTVAGESGSADTVRDPRGFAVKFYTEDGNWDLVGNNTPIFFIRDPILFPSFIHSQKRNPQTHLKDPDMVWDFWSLRPESLHQVSFLFSDRGIPDGHRHMNGYGSHTFKLVNANGEAVYCKFHYKTDQGIKNLSVEDAARLSQEDPDYGIRDLFNAIATGKYPSWTFYIQVMTFNQAETFPFNPFDLTKVWPHKDYPLIPVGKLVLNRNPVNYFAEVEQIAFDPSNMPPGIEASPDKMLQGRLFAYPDTHRHRLGPNYLHIPVNCPYRARVANYQRDGPMCMQDNQGGAPNYYPNSFGAPEQQPSALEHSIQYSGEVRRFNTANDDNVTQVRAFYVNVLNEEQRKRLCENIAGHLKDAQIFIQKKAVKNFTEVHPDYGSHIQALLDKYNAEKPKNAIHTFVQSGSHLAAREKANL
In the case of B1, the “glucose consumption (2NBDG uptake) in DTC” value (MDA-MB-231 parent or DTC [5]) is reported as “reduced potential for glucose consumption” and the “total levels of reduced glutathione (GSH) in DTC” value (DTC) is reported as “diminished total levels of reduced glutathione in DTC”.
